This data set is described as follows: 13C hyperpolarization by Para Hydrogen Induced Polarization (PHIP) with Goldman RF transfer sequence. The class given is physicochemical. Conditions: non-deuterated, natural abundance 13C. The source says:
Our objective was to test a model system of polarization that can be incorporated into peptide sequence. Dehydroalanine is an unnatural amino acid with a methylene group instead of the normal methyl side chain for alanine. Several publications laid out the framework on synthesizing peptides containing this reactive amino acid side chain double bond. (Okeley N M, Zhu Y, van der Donk W A. Facile Chemoselective Synthesis of Dehydroalanine-Containing Peptides†. Organic Letters. 2000; 2(23):3603-6). The double bond of dehydroalanine is ideally positioned for PHIP to generate a polarized ^13C carboxyl nucleus with the resulting product an alanine amino acid residue. We utilized a purchased chemical equivalent resembling dehydroalanine in a peptide chain with the terminal carboxyl and amine protected by functional groups (FIG. 1). […] The 3JHH scalar coupling (J) constant was kept at 7.47 Hz, the 3JHH value was determined by proton spectroscopy. All measured samples were combined and lyophilized to dryness, then and dissolved in 2.5 mL of diH2O and scanned (^13C spectroscopy) for 17 hours with a repetition time of 50 seconds. […]

Consider `C=C(NC(C)=O)C(=O)OC` [MAA, methyl 2-acetamidoacrylate], for which the “polarization reached with the best set of scalar coupling constants” value (13C carboxyl carbon of the alanine product after 3 second para-hydrogenation of 24 mM MAA in deuterium oxide, 1.4 mT PHIP instrument) came to 0.1±0.07%. For the same molecule, for the setting “approximated from the Boltzmann thermal equilibrium signal, 13C spectroscopy at 9.4T”, the “maximum polarization from the best sequence” value is given as around 0.2%.
